Results taken from patent US8785460B2, “Tricyclic compounds and use thereof” (Takeda Pharmaceutical Company Limited, priority 2008, dated 2014).

biological target: T1, human CRF1 receptor (Homo sapiens, UniProt P34998); experiment: Measurement of CRF Binding Inhibitory Rate (receptor binding experiment with 125I-CRF); conditions: human CRF1 receptor expressing CHO cellular membrane fraction, 50 pM 125I-CRF, room temperature 1.5 hr, 0.05 nM to 10 μM of compound; read-out: IC50 values (CRF binding inhibition)
T1 construct: expressed in transfected cells; host or cells: CHO cells (membrane fraction)
T1 sequence (P34998 24-415): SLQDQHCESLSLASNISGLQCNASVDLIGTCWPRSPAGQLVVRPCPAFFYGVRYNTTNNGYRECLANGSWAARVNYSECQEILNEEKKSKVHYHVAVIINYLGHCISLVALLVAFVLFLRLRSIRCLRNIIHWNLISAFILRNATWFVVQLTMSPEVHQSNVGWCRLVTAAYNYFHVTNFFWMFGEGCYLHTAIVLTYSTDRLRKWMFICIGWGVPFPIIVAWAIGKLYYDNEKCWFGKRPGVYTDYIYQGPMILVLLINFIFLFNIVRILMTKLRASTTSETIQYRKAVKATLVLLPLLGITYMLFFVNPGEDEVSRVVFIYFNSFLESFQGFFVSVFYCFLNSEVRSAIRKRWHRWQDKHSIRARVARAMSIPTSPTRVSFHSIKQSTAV
Experimental: Measurement of CRF Binding Inhibitory Rate
A receptor binding experiment was carried out using a human CRF1 receptor expressing CHO cellular membrane fraction and ovine CRF, [^125I]-tyr^0(^125I-CRF). 1000 nM of a test compound was incubated with 1 μg of human CREF receptor expressing CHO cellular membrane fraction and 50 pM of ^125I-CRF in a binding assay buffer (50 mM Tris-HCl, 5 mM EDTA, 10 mM MgCl2, 0.05% CHAPS, 0.1% BSA, 0.5 mM PMSF, 0.1 μg/mL pepstatin, 20 μg/mL leupeptin, pH 7.5). In addition, for measuring nonspecific binding (NSB), 0.1 μM unlabelled human Urocortin was incubated with 5 μg of human CRE receptor expressing CHO cellular membrane fraction and 50 pM of ^125I-CRF in a binding assay buffer. After a binding reaction was carried out at room temperature for 1.5 hr, the membrane was entrapped on a glass filter (UniFilter plate GF-C/Perkin Elmer) by suction filtration using a cell harvester (Perkin Elmer), and washed with ice-cooled 50 mM Tris-HCl (pH 7.5). After drying the glass filter, a liquid scintillation cocktail (Microscinti 0, Perkin Elmer) was added, and the radioactivity of ^125I-CRF remaining on a glass filter was measured using Topcount (Perkin Elmer).
(TB−SB)/(TB−NSB)×100 (SB: radioactivity when a compound is added, TB: maximum binding radioactivity, NSB: nonspecific binding radioactivity) were calculated to obtain binding inhibitory rates under the range of the presence from 0.05 nM to 10 μM of each compound. The IC50 values were calculated by using GraphPad Prism software.

Question: Which IC50 does the source give for CCCC(O)c1ccc(Cl)c2nc3n(c12)CCCN3c1c(C)cc(Cl)cc1Cl (centres unmarked) [Example 140, 1-[9-Chloro-1-(2,4-dichloro-6-methylphenyl)-1,2,3,4-tetrahydropyrimido[1,2-a]benzimidazol-6-yl]butan-1-ol] here?
Answer: < 1000 nM

Question: Which IC50 does the source give for CC(C)(C#N)c1ccc(Cl)c2nc3n(c12)CCCN3c1ccc(Cl)cc1Cl [Example 144, 2-[9-Chloro-1-(2,4-dichlorophenyl)-1,2,3,4-tetrahydropyrimido[1,2-a]benzimidazol-6-yl]-2-methylpropanenitrile] here?
Answer: < 1000 nM

Question: How did the IC50 turn out when CCC(OC(C)=O)c1ccc(Cl)c2nc3n(c12)CCCN3c1cnc(OC)cc1C (centres unmarked) [Example 161, 1-[9-Chloro-1-(6-methoxy-4-methylpyridin-3-yl)-1,2,3,4-tetrahydropyrimido[1,2-a]benzimidazol-6-yl]propyl acetate] was run?
Answer: < 1000 nM

Question: How did the IC50 turn out when COC(=O)c1ccc(Cl)c2nc3n(c12)CCCN3c1ncc(C)nc1C [Example 175, Methyl 9-chloro-1-(3,5-dimethylpyrazin-2-yl)-1,2,3,4-tetrahydropyrimido[1,2-a]benzimidazole-6-carboxylate] was run?
Answer: < 1000 nM

Question: With CC/C(=N\OC(F)F)c1ccc(Cl)c2nc3n(c12)CCCN3c1c(Cl)cc(Cl)cc1Cl [Example 194, (1E)-1-[9-Chloro-1-(2,4,6-trichlorophenyl)-1,2,3,4-tetrahydropyrimido[1,2-a]benzimidazol-6-yl]propan-1-one O-(difluoromethyl)oxime] as the molecule, how does the IC50 read?
Answer: < 1000 nM

Question: Clc1ccc(N2CCCn3c2nc2c(Cl)ccc(N4CCCC4)c23)c(Cl)c1 [Example 196, 9-Chloro-1-(2,4-dichlorophenyl)-6-pyrrolidin-1-yl-1,2,3,4-tetrahydropyrimido[1,2-a]benzimidazole] was tested. Which IC50 did it give?
Answer: < 1000 nM

Question: For CCC(CC)c1ccc(Cl)c2nc3n(c12)CCN3c1ncc(C(F)(F)F)cc1Cl [Example 225, 8-Chloro-1-[3-chloro-5-(trifluoromethyl)pyridin-2-yl]-5-(1-ethylpropyl)-2,3-dihydro-1H-imidazo[1,2-a]benzimidazole], which IC50 is on record?
Answer: < 1000 nM

Question: With CC(C)C(O)c1ccc(Cl)c2nc3n(c12)CCCN3c1ccc(Cl)cc1Cl (centres unmarked) [Example 234, 1-[9-Chloro-1-(2,4-dichlorophenyl)-1,2,3,4-tetrahydropyrimido[1,2-a]benzimidazol-6-yl]-2-methylpropan-1-ol] as the molecule, how does the IC50 read?
Answer: < 1000 nM

Question: CCC(OC(C)C)c1ccc(Cl)c2nc3n(c12)CCCN3c1ccc(Cl)cc1Cl (centres unmarked) [Example 237, 9-Chloro-1-(2,4-dichlorophenyl)-6-[1-(1-methylethoxy)propyl]-1,2,3,4-tetrahydropyrimido[1,2-a]benzimidazole] was tested. Which IC50 did it give?
Answer: < 1000 nM

Question: CCC(OCCO)c1ccc(Cl)c2nc3n(c12)CCCN3c1ccc(Cl)cc1Cl (centres unmarked) [Example 242, 2-{1-[9-Chloro-1-(2,4-dichlorophenyl)-1,2,3,4-tetrahydropyrimido[1,2-a]benzimidazol-6-yl]propoxy}ethanol] was tested. Which IC50 did it give?
Answer: < 1000 nM

Question: How did the IC50 turn out when CCC(OC(C)=O)c1ccc(Cl)c2nc3n(c12)CCCN3c1ccccc1Cl (centres unmarked) [Example 253, 1-[9-Chloro-1-(2-chlorophenyl)-1,2,3,4-tetrahydropyrimido[1,2-a]benzimidazol-6-yl]propyl acetate] was run?
Answer: < 1000 nM

Question: Which IC50 does the source give for CCC(OC(C)=O)c1ccc(Cl)c2nc3n(c12)CCCN3c1ccc(S(C)(=O)=O)cc1Cl (centres unmarked) [Example 254, 1-{9-Chloro-1-[2-chloro-4-(methylsulfonyl)phenyl]-1,2,3,4-tetrahydropyrimido[1,2-a]benzimidazol-6-yl}propyl acetate] here?
Answer: < 1000 nM

Question: For CCC(OC(C)=O)c1ccc(Cl)c2nc3n(c12)CCCN3c1ccc(C(N)=O)cc1Cl (centres unmarked) [Example 255, 1-[1-(4-Carbamoyl-2-chlorophenyl)-9-chloro-1,2,3,4-tetrahydropyrimido[1,2-a]benzimidazol-6-yl]propyl acetate], which IC50 is on record?
Answer: < 1000 nM

Question: For CCC(OC1CC1)c1ccc(Cl)c2nc3n(c12)CCCN3c1ccc(OC)nc1C (centres unmarked) [Example 271, 9-Chloro-6-[1-(cyclopropyloxy)propyl]-1-(6-methoxy-2-methylpyridin-3-yl)-1,2,3,4-tetrahydropyrimido[1,2-a]benzimidazole], which IC50 is on record?
Answer: < 1000 nM

Question: How did the IC50 turn out when CCOc1ccc(N2CCCn3c2nc2c(Cl)ccc(C(OC(F)F)=C(F)F)c23)c(C)n1 [Example 286, 9-Chloro-6-[1-(difluoromethoxy)-2,2-difluoroethenyl]-1-(6-ethoxy-2-methylpyridin-3-yl)-1,2,3,4-tetrahydropyrimido[1,2-a]benzimidazole] was run?
Answer: < 1000 nM

Question: With CCOc1ccc(N2CCCn3c2nc2c(Cl)ccc(C(OC(F)F)C(F)(F)F)c23)c(C)n1 (centres unmarked) [Example 287, 9-Chloro-6-[1-(difluoromethoxy)-2,2,2-trifluoroethyl]-1-(6-ethoxy-2-methylpyridin-3-yl)-1,2,3,4-tetrahydropyrimido[1,2-a]benzimidazole] as the molecule, how does the IC50 read?
Answer: < 1000 nM

Question: For Cc1nc(OC(C)C)ccc1N1CCCn2c1nc1c(Cl)ccc(C(OC(F)F)C(F)(F)F)c12 (centres unmarked) [Example 288, 9-Chloro-6-[1-(difluoromethoxy)-2,2,2-trifluoroethyl]-1-[2-methyl-6-(1-methylethoxy)pyridin-3-yl]-1,2,3,4-tetrahydropyrimido[1,2-a]benzimidazole], which IC50 is on record?
Answer: < 1000 nM

Question: For Cc1nc(C(N)=O)ccc1N1CCCn2c1nc1c(Cl)ccc(C(OC(F)F)C(F)(F)F)c12 (centres unmarked) [Example 293, 5-{9-Chloro-6-[1-(difluoromethoxy)-2,2,2-trifluoroethyl]-3,4-dihydropyrimido[1,2-a]benzimidazol-1(2H)-yl}-6-methylpyridine-2-carboxamide], which IC50 is on record?
Answer: < 1000 nM

Question: CCC(c1ccc(Cl)c2nc3n(c12)CCCN3c1ccc(OC)nc1C)C(F)F (centres unmarked) [Example 303, 9-Chloro-6-[1-(difluoromethyl)propyl]-1-(6-methoxy-2-methylpyridin-3-yl)-1,2,3,4-tetrahydropyrimido[1,2-a]benzimidazole] was tested. Which IC50 did it give?
Answer: < 1000 nM

Question: How did the IC50 turn out when C=COC(CC)c1ccc(Cl)c2nc3n(c12)CCCN3c1ccc(Cl)cc1Cl (centres unmarked) [Example 305, 9-Chloro-1-(2,4-dichlorophenyl)-6-[1-(ethenyloxy)propyl]-1,2,3,4-tetrahydropyrimido[1,2-a]benzimidazole] was run?
Answer: < 1000 nM

Question: Which IC50 does the source give for OC(c1ccc(Cl)c2nc3n(c12)CCCN3c1ccc(Cl)cc1Cl)C(F)(F)F (centres unmarked) [Example 307, 1-[9-Chloro-1-(2,4-dichlorophenyl)-1,2,3,4-tetrahydropyrimido[1,2-a]benzimidazol-6-yl]-2,2,2-trifluoroethanol] here?
Answer: < 1000 nM

Question: For CCC(CC#N)c1ccc(Cl)c2nc3n(c12)CCCN3c1ccc(Cl)cc1Cl (centres unmarked) [Example 316, 3-[9-Chloro-1-(2,4-dichlorophenyl)-1,2,3,4-tetrahydropyrimido[1,2-a]benzimidazol-6-yl]pentanenitrile], which IC50 is on record?
Answer: < 1000 nM

Question: How did the IC50 turn out when CCC(c1ccc(Cl)c2nc3n(c12)CCCN3c1ccc(Cl)cc1Cl)C(O)C(F)(F)F (centres unmarked) [Example 317, 3-[9-chloro-1-(2,4-dichlorophenyl)-1,2,3,4-tetrahydropyrimido[1,2-a]benzimidazol-6-yl]-1,1,1-trifluoropentan-2-ol] was run?
Answer: < 1000 nM

Question: With CCC(C(=O)C(F)(F)F)c1ccc(Cl)c2nc3n(c12)CCCN3c1ccc(Cl)cc1Cl (centres unmarked) [Example 318] as the molecule, how does the IC50 read?
Answer: < 1000 nM

Question: Which IC50 does the source give for COC(=O)c1ccc(Cl)c2nc3n(c12)CCCCN3c1ccc(OC)cc1Cl [Example 330, Methyl 10-chloro-1-(2-chloro-4-methoxyphenyl)-2,3,4,5-tetrahydro-1H-[1,3]diazepino[1,2-a]benzimidazole-7-carboxylate] here?
Answer: < 1000 nM

Question: COc1ccc(N2CCCCn3c2nc2c(Cl)ccc(CO)c23)c(Cl)c1 [Example 331, [10-Chloro-1-(2-chloro-4-methoxyphenyl)-2,3,4,5-tetrahydro-1H-[1,3]diazepino[1,2-a]benzimidazol-7-yl]methanol] was tested. Which IC50 did it give?
Answer: < 1000 nM

Question: CCN(CC)c1cccc2nc3n(c12)CC(F)(F)CCN3c1ccc(Cl)cc1Cl [Example 359, 1-(2,4-Dichlorophenyl)-N,N-diethyl-4,4-difluoro-2,3,4,5-tetrahydro-1H-[1,3]diazepino[1,2-a]benzimidazol-7-amine] was tested. Which IC50 did it give?
Answer: < 1000 nM

Question: Which IC50 does the source give for CCN(CC)c1cccc2nc3n(c12)CC(N=[N+]=[N-])CCN3c1ccc(Cl)cc1Cl (centres unmarked) [Example 361, 4-Azido-1-(2,4-dichlorophenyl)-N,N-diethyl-2,3,4,5-tetrahydro-1H-[1,3]diazepino[1,2-a]benzimidazol-7-amine] here?
Answer: < 1000 nM

Question: How did the IC50 turn out when OC(c1ccc(Br)c2nc3n(c12)CCCN3c1ccc(Cl)cc1Cl)(C1CC1)C1CC1 [Example 368, [9-Bromo-1-(2,4-dichlorophenyl)-1,2,3,4-tetrahydropyrimido[1,2-a]benzimidazol-6-yl](dicyclopropyl)methanol] was run?
Answer: < 1000 nM
